Consider 16 compounds from patent US8791144B2, “Substituted N-phenyl-1-(4-Pyridinyl)-1H-pyrazol-3-amines” (Janssen Pharmaceutica NV, priority 2009, dated 2014).

Data set [1] has as its target T1, hα7-wt nAChR (Homo sapiens, UniProt P36544). In words: Ca2+ flux imaging (FDSS): potentiation of the choline response. Type of data set: cell-based. The conditions noted are these: Ca2+ assay as described in D.1; potentiation of choline response, hα7-wt nAChR; read-out: Potency (pEC50) (converted). The protocol: • a) Assay Buffer • Hanks buffered saline solution (HBSS, Invitrogen, Belgium), supplemented with 10 mM HEPES (Invitrogen, Belgium), CaCl2 to a final concentration of 5 mM, 0.1% Bovine serum albumin (Sigma-Aldrich NV, Belgium). • b) Calcium-Sensitive Dye—Fluo-4AM • Fluo-4AM (Molecular Probes, USA) was dissolved in DMSO containing 10% Pluronic acid (Molecular Probes, USA) to give a stock solution which was diluted in assay buffer supplemented with 5 mM probenicid (Sigma, Aldrich NV, Belgium) to give a final concentration of 2 μM. • c) 384-Well Plates • Black 384 well plate black/clear plates, PDL pre-coated (Corning, Incorporated, USA) • d) Calcium Flux Measurement • A Functional drug screening system (FDSS, Hamamatsu) was used to measure intracellular free-calcium flux signals. Method
Monolayers of hα7-wt nAChR-expressing cells were grown in multi-well plates, in particular black-sided, transparent bottomed 384 well plates coated with poly-D-lysine for 24 hours prior to loading with a fluorescent calcium indicator, in a particular embodiment loading with fluo-4AM for up to 120 minutes.
PAM activity was detected in real time by applying the compounds to be tested to the loaded cells along with a α7 nicotinic receptor agonist during constant monitoring of cellular fluorescence in a FDSS. Compounds giving peak fluorescent responses greater than the response due to agonist alone, were considered to be α7 nAChR PAM's. In a particular embodiment, the α7 nicotinic receptor agonist was choline, a more particular embodiment choline applied at a sub-maximal concentration of 100 μM. In a further setting of the present invention the compounds to be tested were applied prior to the α7 nicotinic receptor agonist, in a particular embodiment up to 10 minutes prior to the agonist.
A control response to choline was calculated on each plate from the difference in peak in fluorescence in wells receiving either choline or assay buffer alone. Compounds of the present invention were tested at a concentration range from 0.01 μM to 30 μM. Compounds were considered to have an interesting activity when they potentiated the choline signal at least with 200% when tested at a concentration of 30 μM (the efficacy of 100 μM choline was defined as 100% in the absence of a PAM). An EC50 (or pEC50) was determined as a concentration relating to half the maximal effect, when a clear sigmoidal curve with top plateau was obtained.
(In general: A change in cytosolic calcium serves as a functional read-out for many receptors and channels.)

Data set [2] concerns the target T1, hα7-wt nAChR. In words: Patch-clamp current recording (whole-cell voltage clamp), potentiation of choline current and PAM type. In kind it is cell-based. More on the design: key: Type 0 compounds minimally enhance the effect size of the current elicited by 1 mM choline.; Type 1 compounds enhance the effect size of the current elicited by 1 mM choline but minimally alter the kinetics of the receptor.; Type 2 compounds enhance the effect size of the current elicited by 1 mM choline while reducing the rate and/or the extent of desensitization.; Type 3 compounds enhance the effect size of the current elicited by 1 mM choline. When tested at higher concentrations up to 10 μM they completely inhibit desensitization, in particular a 1 mM choline application of 250 milliseconds.; Type 4 compounds allow for an initial desensitization of the receptor followed by a re-opening of the receptor during agonist application. The conditions noted are these: hα7-wt nAChR-expressing GH4C1 cells, 1 mM choline. As to the method: The compounds of the present invention are classified as type 0-4, based on qualitative kinetic properties, as determined by whole-cell voltage-clamp recordings. This classification is based on the effect of an α7 PAM compound, as described hereinbefore, on the signal elicited by an agonist application. In particular, said agonist is choline at a concentration of 1 mM. In a preferred experimental setting, said α7 PAM compound and choline are simultaneously applied to the cell, as described hereinafter. Desensitization is defined as the closure of the receptor upon activation during the application of the agonist in whole-cell voltage-clamp electrophysiology measurements seen as the reduction of the […] current after initial activation by the agonist.
The definition of the PAM types 0-4 is described hereinafter: • Type 0 compounds minimally enhance the effect size of the current elicited by 1 mM choline. • Type 1 compounds enhance the effect size of the current elicited by 1 mM choline but minimally alter the kinetics of the receptor. In particular, the rate and the extent of desensitization, elicited by the agonist, is not affected. The compound-modulated response to 1 mM choline, therefore, is a close to linear scaling of the 1 mM choline response in absence of the α7 PAM compound. • Type 2 compounds enhance the effect size of the current elicited by 1 mM choline while reducing the rate and/or the extent of desensitization. • Type 3 compounds enhance the effect size of the current elicited by 1 mM choline. […] At low-potency concentrations of the α7 PAM compound, the agonist-induced activation, which is followed by desensitization, can still be separated from the compound-induced re-opening as an initial inward current-maximum. At higher potency concentrations of the α7 PAM compound, the re-opening occurs faster than the closure due to desensitization so that the initial current-maximum disappears.
A compound was considered to have interesting PAM-like activity when the potentiation of the peak current was at least 200% compared to the control choline response (=100%). Such compounds are classified as belonging to a particular PAM type in the Experimental Part. Compounds not meeting the condition are not classified as belonging to a particular PAM-type.
The compounds also have a potentiating effect on the response to choline when measured by whole-cell patch clamp electrophysiology in GH4C1 cells stably over-expressing the human wild-type α7 receptor.
Patch-clamp recording from mammalian cells has provided a powerful means of assessing the function of membrane-bound proteins thought to be subunits of ligand-gated ion channels. Activation of such proteins by endogenous or exogenous ligands cause opening of a pore associated with the receptor through which ions flow down their electrochemical gradient. In the case of the hα7-wt nAChR-expressing GH4C1 recombinant cell line the preferential permeability to calcium of this receptor means that calcium flows into the cell upon activation by ACh, choline and other nicotinic ligands giving rise to a calcium current. Since this receptor rapidly desensitizes in the presence of agonist it is important an application system is used which is capable of very rapid switching of solutions (<100 ms) to prevent partial or full desensitisation of receptor responses coincident with the time of agonist application. Consequently, a second convenient technique to assess the enhancement of nicotinic efficacy is patch-clamp recording from hα7-wt nAChR-expressing GH4C1 cells coupled with a rapid-application system.
• a) Assay Buffers • The external recording solution consisted of 152 mM NaCl, 5 mM KCl, 1 mM MgCl2, 1 mM Calcium, 10 mM HEPES; pH 7.3. […]
On the technique in general: In patch-clamp work, channel activity is measured electrically.

T1 sequence (P36544 23-502): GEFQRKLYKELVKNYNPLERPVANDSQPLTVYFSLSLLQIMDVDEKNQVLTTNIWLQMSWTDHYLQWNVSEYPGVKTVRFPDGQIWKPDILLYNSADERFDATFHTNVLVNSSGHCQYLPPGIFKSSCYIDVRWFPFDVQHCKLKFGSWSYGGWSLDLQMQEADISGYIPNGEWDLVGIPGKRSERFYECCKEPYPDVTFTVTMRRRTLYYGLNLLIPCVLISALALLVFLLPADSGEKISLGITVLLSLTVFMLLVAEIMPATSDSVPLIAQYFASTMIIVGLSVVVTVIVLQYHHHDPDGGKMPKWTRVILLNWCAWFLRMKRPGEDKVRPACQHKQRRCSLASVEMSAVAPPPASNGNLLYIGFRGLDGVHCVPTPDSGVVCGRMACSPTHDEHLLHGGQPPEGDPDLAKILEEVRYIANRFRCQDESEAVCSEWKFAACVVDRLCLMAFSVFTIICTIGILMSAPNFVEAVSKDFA

The term melting point denotes the temperature of the solid-liquid transition. Turning to `COc1cc(Nc2cc(CC(=O)NCC3CC3)n(-c3ccnc(C)c3)n2)cc(C(F)(F)F)c1` [Compound 5, N-(cyclopropylmethyl)-3-[[3-methoxy-5-(trifluoromethyl)phenyl]amino]-1-(2-methyl-4-pyridinyl)-1H-pyrazole-5-acetamide], the melting point was 228.3 °C. Further, the EC50 at hα7-wt nAChR [1] was 75.9 nM. For the same compound, at hα7-wt nAChR [2], the PAM type turned out to be 4.

Take `Cc1cc(-n2nc(Nc3ccc(F)c(F)c3)cc2CCC(=O)N(C)C)ccn1` [Compound 30, 3-[(3,4-difluorophenyl)amino]-N,N-dimethyl-1-(2-methyl-4-pyridinyl)-1H-pyrazole-5-propanamide]: the EC50 on hα7-wt nAChR [1] is 977 nM. Moreover, on hα7-wt nAChR [2], the PAM type turned out to be 4.

As to `CC[C@H](O)Cc1cc(Nc2cc(Cl)cc(OC)c2)nn1-c1ccnc(C)c1` [Compound 61, (alphaS)-3-[(3-chloro-5-methoxyphenyl)amino]-alpha-ethyl-1-(2-methyl-4-pyridinyl)-1H-pyrazole-5-ethanol], the melting point amounted to 125.3 °C. At hα7-wt nAChR [1], the EC50 was 794 nM. Also, the PAM type on hα7-wt nAChR [2] is on record as 2.

`Cc1cc(-n2nc(Nc3cccc(OC(F)(F)F)c3)cc2CC(=O)NCC2CC2)cc(C)n1` [Compound 120, N-(cyclopropylmethyl)-1-(2,6-dimethyl-4-pyridinyl)-3-[[3-(trifluoromethoxy)phenyl]amino]-1H-pyrazole-5-acetamide]: the melting point came to 199.4 °C. Further, the EC50 on hα7-wt nAChR [1] is 141 nM. The PAM type at hα7-wt nAChR [2] was found to be 2.

The compound `CCNC(=O)Cc1cc(Nc2cccc(C(F)(F)F)c2)nn1-c1ccnc(C)c1` [Compound 44, N-ethyl-1-(2-methyl-4-pyridinyl)-3-[[3-(trifluoromethyl)phenyl]amino]-1H-pyrazole-5-acetamide] yielded a melting point of 228.9 °C. Moreover, at hα7-wt nAChR [1], the EC50 was 603 nM. Also, the PAM type at hα7-wt nAChR [2] was 2.

Turning to `CCNC(=O)Cc1cc(Nc2cccc(OC(F)(F)F)c2)nn1-c1ccnc(C)c1` [Compound 113, N-ethyl-1-(2-methyl-4-pyridinyl)-3-[[3-(trifluoromethoxy)phenyl]amino]-1H-pyrazole-5-acetamide], the melting point came to 210.3 °C. The EC50 at hα7-wt nAChR [1] was 1150 nM. Further, the PAM type at hα7-wt nAChR [2] came out at 3.

`Cc1cc(-n2nc(Nc3ccc(F)c(F)c3)cc2COCc2ccccc2)ccn1` [Compound 31, N-(3,4-difluorophenyl)-1-(2-methyl-4-pyridinyl)-5-[(phenylmethoxy)methyl]-1H-pyrazol-3-amine] had a melting point of 171 °C. The EC50 at hα7-wt nAChR [1] was 1150 nM. On hα7-wt nAChR [2], the PAM type is listed as 0.

Take `Cc1cc(-n2nc(Nc3cccc(Cl)c3F)cc2CCC(=O)N(C)C)ccn1` [Compound 84, 3-[(3-chloro-2-fluorophenyl)amino]-N,N-dimethyl-1-(2-methyl-4-pyridinyl)-1H-pyrazole-5-propanamide]: on hα7-wt nAChR [1], the EC50 was 661 nM. Also, the PAM type on hα7-wt nAChR [2] amounted to 4.

In the case of `CNC(=O)Cc1cc(Nc2cccc(C(F)(F)F)c2)nn1-c1ccnc(C)c1` [Compound 42, N-methyl-1-(2-methyl-4-pyridinyl)-3-[[3-(trifluoromethyl)phenyl]amino]-1H-pyrazole-5-acetamide], the EC50 on hα7-wt nAChR [1] was 1860 nM. The PAM type on hα7-wt nAChR [2] was determined as 4.

Turning to `COc1cc(Cl)cc(Nc2cc(CC(=O)NC3CC3)n(-c3ccnc(C)c3)n2)c1` [Compound 77, 3-[(3-chloro-5-methoxyphenyl)amino]-N-cyclopropyl-1-(2-methyl-4-pyridinyl)-1H-pyrazole-5-acetamide], the EC50 at hα7-wt nAChR [1] was 603 nM. The PAM type on hα7-wt nAChR [2] was found to be 4.

Take `Cc1cc(-n2nc(Nc3cccc(C(F)(F)F)c3)cc2CCC(=O)N(C)C)ccn1` [Compound 49, N,N-dimethyl-1-(2-methyl-4-pyridinyl)-3-[[3-(trifluoromethyl)phenyl]amino]-1H-pyrazole-5-propanamide]: the EC50 at hα7-wt nAChR [1] was 295 nM. Besides, on hα7-wt nAChR [2], the PAM type was 4.

For the compound `CC[C@H](O)Cc1cc(Nc2cc(F)c(F)c(F)c2)nn1-c1ccnc(C)c1` [Compound 20, (alphaS)-alpha-ethyl-1-(2-methyl-4-pyridinyl)-3-[(3,4,5-trifluorophenyl)amino]-1H-pyrazole-5-ethanol], the EC50 at hα7-wt nAChR [1] was 851 nM. Besides, the PAM type at hα7-wt nAChR [2] is recorded as 2.

As to `CC[C@H](O)Cc1cc(Nc2ccc(Br)cc2C#N)nn1-c1ccnc(C)c1` [Compound 124, 5-bromo-2-[[5-[(2S)-2-hydroxybutyl]-1-(2-methyl-4-pyridinyl)-1H-pyrazol-3-yl]amino]-benzonitrile], on hα7-wt nAChR [1], the EC50 is 1660 nM. The PAM type at hα7-wt nAChR [2] was 2.

As to `COc1cc(Cl)cc(Nc2cc(CCC(=O)N(C)C)n(-c3ccnc(C)c3)n2)c1` [Compound 85, 3-[(3-chloro-5-methoxyphenyl)amino]-N,N-dimethyl-1-(2-methyl-4-pyridinyl)-1H-pyrazole-5-propanamide], the EC50 at hα7-wt nAChR [1] was 295 nM. For the same compound, the PAM type on hα7-wt nAChR [2] was determined as 4.

As for `CCNC(=O)Cc1cc(Nc2cccc(Cl)c2F)nn1-c1cc(C)nc(C)c1` [Compound 75, 3-[(3-chloro-2-fluorophenyl)amino]-1-(2,6-dimethyl-4-pyridinyl)-N-ethyl-1H-pyrazole-5-acetamide], the EC50 at hα7-wt nAChR [1] is 372 nM. Besides, at hα7-wt nAChR [2], the PAM type was found to be 2.

With `CC[C@@H](O)Cc1cc(Nc2cc(OC)cc(C(F)(F)F)c2)nn1-c1ccnc(C)c1` [Compound 36, (alphaR)-alpha-ethyl-3-[[3-methoxy-5-(trifluoromethyl)phenyl]amino]-1-(2-methyl-4-pyridinyl)-1H-pyrazole-5-ethanol], the EC50 on hα7-wt nAChR [1] was 162 nM. Also, the PAM type on hα7-wt nAChR [2] turned out to be 2.
